Test results reported in patent publication US10077237B2 (Sanofi, priority 2013, dated 2018).
Structures can show the parent of a compound that is named as a salt.

Target: T1, recombinant human AMPK complex, containing α2β1γ2 (Homo sapiens, UniProt P54646+Q9Y478)
T1 construct: hsAMPKα2-552-His, hsAMPKβ1-2-270 and hsAMPKγ-2-569 respectively; hsAMPKβ1-2-270; hsAMPKγ-2-569; His (C); made in house; host or cells: Spodoptera frugiperda Sf21 (baculovirus)
Experiment: AMPK in vitro activation assay (HTRF)
Format: biochemical
Settings: for EC50: HTRF, recombinant human α2β1γ2 AMPK, 200 μM ATP, biotinylated ACC-CREBp peptide, repeat determinations on separate lines; for Emax: potentiation of AMPK activity as percent over the basal signal (without compound)
Procedure: The recombinant human AMPK complex, containing α2β1γ2 was obtained from baculovirus expression system and generated by cotransfection in Spodoptera frugiperda 21 (Sf21). […] were produced in serum free medium (SF900 II, Invitrogen) for 82 hours after a triple infection at a multiplicity of infection (M.O.I.) of 0.05, 0.06 and 0.045 for hsAMPKα2-552-His, hsAMPKβ1-2-270 and hsAMPKγ-2-569 respectively. Cells were harvested by centrifugation at 1,000×g for 10 minutes at 4° C. and stored at −80° C. The insect cell pellet from 8 liters of culture was resuspended and homogenized in 580 ml of lysis buffer (20 mM Hepes pH 7.5, 150 mM NaCl, 10 mM imidazole, 50 mM NaF, 10% Glycerol and supplemented with EDTA free proteases inhibitor cocktail Roche). The AMPK complex was partially purified using an affinity chromatography under a Ni-NTA Agarose column equilibrated in the lysis buffer and eluted with a gradient (0 to 400 mM) of Imidazol.
A homogeneous time-resolved fluorescence (HTRF) assay was used (Li et al, Anal. Biochem. (2003) 321, 151-156) to identify compounds with stimulating activity for the recombinant human AMPK. Enzyme reaction was performed into a 96-well microtiter plate. First, 20 μL of test compounds in 0.5% DMSO were dispensed followed by 10 μL of protein in 50 mM HEPES buffer at pH 7.0, 100 mM NaCl, 5 mM MgCl2, 0.01% BSA, 0.8 mM DTT. After, 30 min incubation at room temperature, the reaction was initiated by the addition of 10 μL of a solution containing 200 μM of ATP as donor substrate, 2 μM or 0.08 μM of biotinylated ACC-CREBp peptide (PolyPeptide) as acceptor. Plates were then incubated 45 min at 37° C. The reaction was terminated by the addition of 40 μl detection mixture containing Eu^3+ cryptate-conjugated anti-pS^133-CREB antibody and streptavidine-XL665 (CisBio). Plates were further incubated for 2 h30 at room temperature. The fluorescence signal was measured using an Envision multireader (Perkin Elmer). The non-specific signal was obtained without substrates. Potentiation of AMPK activity was expressed as a percent over the basal signal (without compound) from which an EC50 value was determined.
The EC50 of a graded dose response curve represents the concentration of a compound where 50% of its maximal effect is observed.

T1 sequence (P54646 2-552): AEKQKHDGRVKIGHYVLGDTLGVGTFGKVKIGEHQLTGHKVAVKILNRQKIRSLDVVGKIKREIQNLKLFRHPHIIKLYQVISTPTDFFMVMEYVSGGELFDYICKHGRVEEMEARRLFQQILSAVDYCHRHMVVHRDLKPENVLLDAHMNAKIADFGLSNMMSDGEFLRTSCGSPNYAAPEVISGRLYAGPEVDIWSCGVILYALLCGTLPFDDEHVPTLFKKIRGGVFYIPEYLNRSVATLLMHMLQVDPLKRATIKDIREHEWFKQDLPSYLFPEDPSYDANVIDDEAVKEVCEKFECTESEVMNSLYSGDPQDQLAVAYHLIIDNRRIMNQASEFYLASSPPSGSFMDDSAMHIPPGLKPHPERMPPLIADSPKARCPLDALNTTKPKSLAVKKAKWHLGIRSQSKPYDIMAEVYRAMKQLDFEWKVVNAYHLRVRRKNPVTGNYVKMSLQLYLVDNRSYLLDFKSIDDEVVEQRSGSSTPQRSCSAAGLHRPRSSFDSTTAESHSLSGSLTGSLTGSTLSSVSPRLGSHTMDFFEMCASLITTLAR
T1 sequence (Q9Y478 2-270): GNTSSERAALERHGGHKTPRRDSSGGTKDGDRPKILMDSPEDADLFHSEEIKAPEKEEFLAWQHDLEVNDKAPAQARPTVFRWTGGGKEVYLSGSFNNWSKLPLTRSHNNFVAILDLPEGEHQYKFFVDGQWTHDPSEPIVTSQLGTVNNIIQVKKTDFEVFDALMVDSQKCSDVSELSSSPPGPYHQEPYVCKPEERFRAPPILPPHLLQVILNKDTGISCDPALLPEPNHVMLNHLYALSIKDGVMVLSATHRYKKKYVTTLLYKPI
T1 sequence (Q9UGJ0 2-569 partner limits assumed): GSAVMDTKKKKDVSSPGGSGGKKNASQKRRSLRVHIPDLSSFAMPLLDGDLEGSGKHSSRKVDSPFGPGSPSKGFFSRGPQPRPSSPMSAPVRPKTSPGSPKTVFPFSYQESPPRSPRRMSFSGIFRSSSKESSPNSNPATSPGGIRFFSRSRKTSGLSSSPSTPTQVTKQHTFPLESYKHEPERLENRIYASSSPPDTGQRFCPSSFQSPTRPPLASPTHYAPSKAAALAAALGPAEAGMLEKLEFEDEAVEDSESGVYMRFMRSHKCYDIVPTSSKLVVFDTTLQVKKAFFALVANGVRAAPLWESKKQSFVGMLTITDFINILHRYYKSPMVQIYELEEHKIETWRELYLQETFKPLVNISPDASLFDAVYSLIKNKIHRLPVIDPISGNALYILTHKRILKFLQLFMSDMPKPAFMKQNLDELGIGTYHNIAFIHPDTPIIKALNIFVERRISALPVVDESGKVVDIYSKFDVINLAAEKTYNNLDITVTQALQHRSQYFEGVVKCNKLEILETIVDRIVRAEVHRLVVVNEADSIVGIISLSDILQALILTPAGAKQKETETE

SMILES | EC50 [nM] | Emax [%]
COc1c(F)cc(C(O)=C2C(=O)Nc3cc(Cl)c(-c4ccc(N5CCOCC5)cc4)cc32)cc1Cl [Compound 97, 6-chloro-3-[(3-chloro-5-fluoro-4-methoxy-phenyl)hydroxy-methylene]-5-(4-morpholinophenyl)indolin-2-one] | 41 | 185
COc1cc(C(O)=C2C(=O)Nc3cc(Cl)c(-c4ccc(C5CCN(CC(F)(F)F)C5)cc4)cc32)on1 (stereo not shown) [Compound 167, 6-chloro-3-[hydroxy-(3-methoxyisoxazol-5-yl)methylene]-5-[4-[1-(2,2,2-trifluoroethyl)pyrrolidin-3-yl]phenyl]indolin-2-one hydrochloride] | 117 | 156
O=C1Nc2cc(Cl)c(-c3ccc(C4(CO)CC4)cc3)cc2C1=C(O)c1ccc(Cl)s1 [Compound 130, 6-chloro-3-[(5-chloro-2-thienyl)hydroxy-methylene]-5-[4-[1-(hydroxymethyl)cyclopropyl]phenyl]indolin-2-one] | 9 | 373
O=C1Nc2cc(Cl)c(-c3ccc(N4CCOCC4)cc3)cc2C1=C(O)c1cccc(C(F)F)c1 [Compound 39, 6-Chloro-3-[1-(3-difluoromethyl-phenyl)-1-hydroxy-methylidene]-5-(4-morpholin-4-yl-phenyl)-1,3-dihydro-indol-2-one] | 620 | 168
O=C1Nc2cc(Cl)c(-c3ccc(C4CC(O)C4)cc3)cc2C1=C(O)c1cc(F)cc(F)c1 (stereo not shown) [Compound 161, 6-chloro-3-[(3,5-difluorophenyl)hydroxy-methylene]-5-[4-(3-hydroxycyclobutyl)phenyl]indolin-2-one] | 15 | 155
COc1ccc(C(O)=C2C(=O)Nc3cc(Cl)c(-c4ccc(N5CCOCC5)cc4)cc32)nc1 [Compound 140, 6-chloro-3-[hydroxy-(5-methoxy-2-pyridyl)methylene]-5-(4-morpholinophenyl)indolin-2-one] | 21 | 227
O=C1Nc2cc(Cl)c(-c3ccc(-c4ccccc4)cc3)cc2C1=C(O)c1ccccc1 [Compound 7, 5-Biphenyl-4-yl-6-chloro-3-[1-hydroxy-1-phenyl-methylidene]-1,3-dihydro-indol-2-one] | 1400 | 57
O=C1Nc2cc(Cl)c(-c3ccc(N4CCOCC4)cc3)cc2C1=C(O)c1ccno1 [Compound 59, 6-Chloro-3-[1-hydroxy-1-isoxazol-5-yl-methylidene]-5-(4-morpholin-4-yl-phenyl)-1,3-dihydro-indol-2-one] | 29 | 245
CC(C)(C)c1cc(C(O)=C2C(=O)Nc3cc(Cl)c(-c4ccc(N5CCOCC5)cc4)cc32)on1 [Compound 112, 3-[(3-tert-butylisoxazol-5-yl)-hydroxy-methylene]6-chloro-5-(4-morpholinophenyl)indolin-2-one] | 13 | 197
Cc1cc(C(O)=C2C(=O)Nc3cc(Cl)c(-c4ccc(OCC5COC5)cc4)cc32)on1 [Compound 132, 6-chloro-3-[hydroxy-(3-methylisoxazol-5-yl)methylene]-5-[4-(oxetan-3-ylmethoxy)phenyl]indolin-2-one] | 49 | 364
COc1cc(C(O)=C2C(=O)Nc3cc(Cl)c(-c4ccc(OC5CCC(O)CC5)cc4)cc32)on1 (stereo not shown) [Compound 152, 6-chloro-5-[4-(4-hydroxycyclohexoxy)phenyl]-3-[hydroxy-(3-methoxyisoxazol-5-yl)methylene]indolin-2-one] | 9 | 223
COc1cc(C(O)=C2C(=O)Nc3cc(Cl)c(-c4ccc(C5CCNC5)cc4)cc32)on1 (stereo not shown) [Compound 134, 6-chloro-3-[hydroxy-(3-methoxyisoxazol-5-yl)methylene]-5-(4-pyrrolidin-3-ylphenyl)indolin-2-one hydrochloride] | 9 | 394
Cc1cc(C(O)=C2C(=O)Nc3cc(Cl)c(-c4ccc(O)c(F)c4)cc32)on1 [Compound 44, 6-Chloro-5-(3-fluoro-4-hydroxy-phenyl)-3-[1-hydroxy-1-(3-methyl-isoxazol-5-yl)-methylidene]-1,3-dihydro-indol-2-one] | 470 | 165
COc1cccc(-c2ccc(-c3cc4c(cc3Cl)NC(=O)C4=C(O)c3cnc(C)s3)cc2)c1O [Compound 51, 6-Chloro-5-(2′-hydroxy-3′-methoxy-biphenyl-4-yl)-3-[1-hydroxy-1-(2-methyl-thiazol-5-yl)-methylidene]-1,3-dihydro-indol-2-one] | 11 | 129

Now those with a lower EC50, led by results:

EC50 [nM] | Emax [%] | SMILES
4 | 172 | COc1cc(C(O)=C2C(=O)Nc3cc(Cl)c(-c4ccc(C(CO)CO)cc4)cc32)on1 [Compound 121, 6-chloro-5-[4-[2-hydroxy-1-(hydroxymethyl)ethyl]phenyl]-3-[hydroxy-(3-methoxyisoxazol-5-yl)methylene]indolin-2-one]
1 | 151 | Cc1cc(C(O)=C2C(=O)Nc3cc(Cl)c(-c4ccc(C5(CO)CC5)cc4F)cc32)on1 [Compound 85, 6-chloro-5-[2-fluoro-4-[1-(hydroxymethyl)cyclopropyl]phenyl]-3-[hydroxy-(3-methylisoxazol-5-yl)methylene]indolin-2-one]
1 | 158 | COc1cc(C(O)=C2C(=O)Nc3cc(Cl)c(-c4ccc(N(C)C)cc4F)cc32)on1 [Compound 148, 6-chloro-5-[4-(dimethylamino)-2-fluoro-phenyl]-3-[hydroxy-(3-methoxyisoxazol-5-yl)methylene]indolin-2-one]
0.6 | 126 | O=C1Nc2cc(Cl)c(-c3ccc(C4(CO)CC4)cc3F)cc2C1=C(O)c1cc(C2CC2)no1 [Compound 113, 6-chloro-3-[(3-cyclopropylisoxazol-5-yl)hydroxy-methylene]-5-[2-fluoro-4-[1-(hydroxymethyl)cyclopropyl]phenyl]indolin-2-one]
6 | 197 | O=C1Nc2cc(Cl)c(-c3ccc(C4CC(O)C4)cc3)cc2C1=C(O)c1ccccc1F (stereo not shown) [Compound 171, 6-chloro-3-[(2-fluorophenyl)hydroxy-methylene]-5-[4-(3-hydroxycyclobutyl)phenyl]indolin-2-one]
4 | 185 | Cc1cc(C(O)=C2C(=O)Nc3cc(Cl)c(-c4ccc(OCCCO)cc4)cc32)on1 [Compound 91, 6-chloro-3-[hydroxy-(3-methylisoxazol-5-yl)methylene]-5-[4-(3-hydroxypropoxy)phenyl]indolin-2-one]
0.6 | 141 | O=C1Nc2cc(Cl)c(-c3ccc(C4(CO)CC4)cc3)cc2C1=C(O)c1cc2cccnc2o1 [Compound 157, 6-chloro-3-[furo[2,3-b]pyridin-2-yl(hydroxy)methylene]-5-[4-[1-(hydroxymethyl)cyclopropyl]phenyl]indolin-2-one]
6 | 239 | O=C1Nc2cc(Cl)c(-c3ccc(C4(CO)CC4)cc3)cc2C1=C(O)c1cncc(F)c1 [Compound 142, 6-chloro-3-[(5-fluoro-3-pyridyl)hydroxy-methylene]-5-[4-[1-(hydroxymethyl)cyclopropyl]phenyl]indolin-2-one]
3 | 115 | O=C1Nc2cc(Cl)c(-c3ccc(N4CCOCC4)cc3)cc2C1=C(O)c1cc(Br)no1 [Compound 41, 3-[1-(3-Bromo-isoxazol-5-yl)-1-hydroxy-methylidene]-6-chloro-5-(4-morpholin-4-yl-phenyl)-1,3-dihydro-indol-2-one]
